In article PMC4849654, “A High-Throughput Cell-Based Screen Identified a 2-[(E)-2-Phenylvinyl]-8-Quinolinol Core Structure That Activates p53” (PLoS ONE, 2016):

Assays:
[1] = system: C33a cells; test: Cell cycle distribution by PI staining; assay type: cell-based
[2] = system: siHA cells; test: Cell viability (Cell Titer Glo), siHA; assay type: cell-based; conditions: 48h
Procedure: (§1) For the viability assays, 20,000 C33a, HeLa, or siHA cells were plated in white 96 well flat bottom plates. The cells were treated with compounds at concentrations from 0.5 to 30 μM for 48 hrs. After incubation, Cell Titer Glo (Promega) was added to the cells and luminescence read in a Tecan II plate reader. For annexin V and PI staining, 500,000 C33a cells were treated with inhibitor for 24 hrs. The cells were stained with Annexin V-FITC and PI according to eBioscience manufacturer’s instructions and analyzed by flow cytometry.

[3] = system: SQ20B cells; test: Cell viability, SQ20B; assay type: cell-based; conditions: mutant p53
[4] = system: p53-Luc; test: In vitro E6 degradation assay (recombinant E6 with p53-Luc lysates); assay type: biochemical; conditions: 50 ng recombinant E6, 10 μM compound, C33a lysates, 6 hours
Procedure: For the in vitro assay, E6 was cloned into the pMAL vector in frame with the maltose binding protein. The E6 was expressed in bacteria and purified on amylose column. C33a cells were transfected with p53-Luc and incubated overnight. 50 ng recombinant E6 was incubated with 10 μM compound and C33a lysates for 6 hours at 30 degrees. We measured luciferase activity after 30 minutes. For the trypsin and chymotrypsin assay, C33a cells were incubated for 2 hours with the indicated compounds at 10 μM and assessed for chymotrypsin and trypsin activity using Proteasome-Glo assay (Promega). For the in vivo degradation assay, C33a cells expressing Ad-TE6 and Ad-p53 or expressing Ad-TE7 and Ad-Rb-Ren were treated for 8 hours with compounds. After incubation, cells were lysed and luciferase activity measured and p53 levels measured by Western blot.

[5] = system: PUMA promoter; test: ChIP-qPCR of p53 binding to the PUMA promoter; assay type: cell-based; conditions: 8 hrs
Procedure: Cells treated with the indicated compounds for 8 hrs, harvested and ChIP was carried using a Chromatin Immunoprecipitation Assay Kit (EMD Millipore). p53-DNA complexes were immunoprecipitated using a mouse monoclonal DO-1 antibody (Santa Cruz) and incubated overnight at 4°C. qPCR amplifications was performed using the primer sequences Puma forward 5’- […], reverse 5’- […].

[6] = target: E6 (Human papillomavirus type 16, UniProt P03126); conditions: SPR
E6, sequence (P03126 whole entry): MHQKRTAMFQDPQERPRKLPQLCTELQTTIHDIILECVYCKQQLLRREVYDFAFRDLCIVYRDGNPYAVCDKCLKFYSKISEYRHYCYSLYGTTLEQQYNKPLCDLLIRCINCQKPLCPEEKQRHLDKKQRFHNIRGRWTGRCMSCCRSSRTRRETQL
Procedure: p53 or E6 (R&D systems) were suspended in 10 mM sodium acetate pH 5.0 and amine linked to a Biacore CM5 chip (GE systems). Free reactive amines were then blocked with ethanolamine. Compound 4 was diluted in HBS P buffer (GE systems) at concentrations 1–30 μM and run over the chip. The association time was monitored for 300s and disassociation time for 1000 sec. After each run, the chip was regenerated using 10 mM glycine pH 3.0. The sensograms were fit to a one-ligand model to determine the Ka and Kd.

[7] = target: T1, p53 (Homo sapiens, UniProt P04637, R273C); test: p53 nuclear localization by immunofluorescence; assay type: cell-based; conditions: C33a cells, 30 μM, 8 hrs
T1 construct: endogenous in cells; host or cells: C33a
Procedure: C33a cells were plated into chamber slides and treated with 30 μM of compounds 3 or, 4 for 4, or 8 hours. As a control, 30 μM cisplatin was used. The cells were fixed with 2.5% formaldehyde for 30 minutes, followed by permeabilization with 0.01% Triton X100 for 30 minutes. Cells were blocked with 5% goat serum for 30 minutes and stained overnight with anti-p53 (Santa Cruz, antibody FL-303) or anti-phospho-H2A.X (cell signaling) in 1% FCS in PBS at 4°. The following day, the cells were washed with PBS and incubated for 45 minutes with anti-rabbit-FITC and DAPI in 1% FCS in PBS. The cells were washed and mounted with ProLong Gold.

[8] = system: HeLa cells; test: Cell viability (Cell Titer Glo), HeLa; assay type: cell-based
Procedure: as §1

[9] = target: T2, p73 (Homo sapiens, UniProt O15350); test: p73 nuclear accumulation by Western analysis; assay type: cell-based; conditions: mutHCT116 cells, 6h
T2 construct: endogenous in cells; host or cells: HCT116 (p53-null mutHCT116 and wtHCT116)
T2 sequence (O15350 1-636): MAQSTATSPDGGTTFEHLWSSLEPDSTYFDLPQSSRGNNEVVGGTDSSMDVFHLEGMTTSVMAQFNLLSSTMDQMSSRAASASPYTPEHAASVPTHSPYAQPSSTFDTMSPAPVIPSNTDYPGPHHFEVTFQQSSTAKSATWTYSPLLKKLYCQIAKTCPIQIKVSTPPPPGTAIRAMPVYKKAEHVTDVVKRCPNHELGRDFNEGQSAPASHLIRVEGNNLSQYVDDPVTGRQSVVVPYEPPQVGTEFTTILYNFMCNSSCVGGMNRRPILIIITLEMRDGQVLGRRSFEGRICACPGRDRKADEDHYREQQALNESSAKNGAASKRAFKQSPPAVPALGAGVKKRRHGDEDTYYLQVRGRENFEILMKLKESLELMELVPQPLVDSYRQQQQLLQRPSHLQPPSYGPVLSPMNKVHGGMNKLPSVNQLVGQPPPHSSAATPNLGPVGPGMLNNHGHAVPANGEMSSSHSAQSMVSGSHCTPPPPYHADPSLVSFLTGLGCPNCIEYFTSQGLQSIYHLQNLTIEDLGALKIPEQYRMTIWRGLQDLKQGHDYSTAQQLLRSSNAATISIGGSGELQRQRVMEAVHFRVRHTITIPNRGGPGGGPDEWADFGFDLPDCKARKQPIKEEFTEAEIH

[10] = target: T3, p53 (Homo sapiens, UniProt P04637); test: Surface plasmon resonance (Biacore) binding to p53; conditions: SPR, recombinant p53 amine linked to Biacore chip, compound 1 to 25 μM
T3 construct: purchased R&D systems
Excerpt: Free reactive amines were then blocked with ethanolamine.

[11] = system: proteasome trypsin-like activity; test: Proteasome-Glo trypsin-like activity; assay type: cell-based; conditions: C33a cells, 2 hrs, 10 μM or 30 μM
[12] = system: C33a cells; test: Cell viability after p53 siRNA knockdown; assay type: cell-based; conditions: p53 siRNA vs scrambled, 10 μM, 48 hrs
Procedure: C33a cells were transfected with 100 pmol siRNA for p53 (Dharmacon, L-003329-00-0005) or AllStar control (Qiagen) using lipofectamine2000 according to manufacturer’s instructions. The cells were incubated for 24 hrs and then split and incubated with 10 μM compounds. Cell viability was measured after 48 hours by Cell Titer Glo. Efficiency of knockdown was determined by quantitative RT-PCR using SYBR green.

[13] = system: HCT116 cells; test: Cell viability, HCT116 (wtHCT116 and p53-null mutHCT116); assay type: cell-based
[14] = system: proteasome chymotrypsin-like activity; test: Proteasome-Glo chymotrypsin-like activity; assay type: cell-based; conditions: C33a cells, 2 hrs, 10 μM or 30 μM

## COc1ccc(/C=C/c2ccc3cccc(O)c3n2)cc1OC [compound 4]
[1]
  cell cycle distribution: normal cell cycle distribution
[2]
  cell viability at 30 μM: decreased viability
[3]
  cell viability (Fig 5D): decreased viability
[4]
  restoration of p53 levels in vitro: restored p53 levels in vitro to similar levels as the proteasome inhibitor MG132
[5]; C33a cells
  p53 binding to the PUMA promoter compared to controls: 38.9±2.4 fold
[5]; HeLa cells
  p53 binding to the PUMA promoter compared to controls: 31.3±8.7 fold
[6]; E6 versus p53
  fold lesser affinity for E6 than for p53: 16 fold
[6]; read-out: KD for E6, recombinant E6
  Kd: 3.2 ± 1 µM
[7]
  p53 nuclear accumulation, % of cell nuclei: 79.5±12.7 % of cell nuclei
[8]; HeLa
  cell viability (Fig 5D): decreased viability
[8]; HeLa cells, 48 hrs, Cell Titer Glo
  IC50: 4.5 µM
[8]; HeLa, 30 μM, 48h
  cell viability at 30 μM: decreased viability
[9]
  p73 nuclear accumulation: did not increase p73 nuclear accumulation
[10]
  Kd: 0.2 ± 0.052 µM
[11]
  trypsin-like proteasome activity: did not significantly reduce
[12]
  effect of p53 gene knockdown on C33a sensitivity to compound: significantly reversed
[13]; 10 μM, percent viability mutHCT116 divided by wtHCT116
  viability of mutHCT116 cells relative to wtHCT116 cells: 2.5±0.5 fold
[13]; HCT116, wild type p53
  cell viability (Fig 5D): decreased viability
[14]
  chymotrypsin-like proteasome activity: did not significantly reduce
